According to patent US20260209171A1, “CATIONIC LIPIDS AND MANUFACTURING METHOD THEREFOR” (SAMYANG HOLDINGS CORPORATION, priority 2022, published 2026):

Experiments:
[1] = Particle characteristics of the prepared formulation by particle size analyzer (Dynamic Light Scattering, DLS); type: physicochemical; details: mRNA formulation, compound:DOPE:Cholesterol:DMG-PEG=50:10:38.5:1.5, N/P ratio 6; for PDI (PI) / Z-average: DLS
Protocol: (§1) According to the following table 1, the materials required for preparing the formulation were dissolved in each dilution solvent and prepared at the required concentration. When dissolving, the materials were kept at room temperature and then the solvent was added to dissolve them.
(§2) The required amounts of the raw materials were mixed in order to meet the N/P ratio (amine group of lipid/phosphate group of mRNA) of 6 and each compound of formulas A to G:DOPE:Cholesterol:DMG-PEG=50:10:38.5:1.5. Ethanol was added to the ethanol layer so that the molecular total of all raw materials was within 12.5 mM, and the aqueous phase and ethanol phase were mixed maintaining a volume ratio of 3:1. After the mixing, to reduce the total ethanol content, buffer exchange was performed as follows: The mixture solution was concentrated by centrifugation at 4,000 rpm using an Amicon-Ultra tube filter (Merk Millipore, UFC505096 or UFC805024, pore size: 50K, volume: 15 mL), then diluted with PBS and centrifuged to concentrate. This process was repeated to exchange the buffer.
(§3) The more concrete procedure is as follows: • 1) Two autoclaved tubes were prepared (tubes (A) and (B)). • 2) In tube (A), each compound of formulas A to G, DOPE, cholesterol and DMG-PEG in molar quantities calculated according to the experimental conditions were sequentially added and mixed by vortexing. • 3) In the ethanol phase, when necessary, ethanol was added so that the molecular total of all raw materials was within 12.5 mM. • 4) In tube (B), mRNA and 20 mM sodium acetate buffer (pH 4.6) were mixed. At that time, the ratio was calculated and added so that the aqueous phase was total three times the amount of the ethanol phase. • 5) Mixing of Tube (A) and Tube (B) was performed using a Microfluidics (Ignite, Precision Nanosystem) device. Microfluidics operating conditions were FRR (Flow Rate Ratio) of C:R=3:1 and […] (Total Flow Rate) of 12 mL/min. • 6) The resulting mixture from step 5) was centrifuged at 4,000 rpm using an Amicon-Ultra tube filter (50K), and the process of concentration and dilution was repeated to remove excess ethanol, and then concentrated to a final x mg/ml (theoretical concentration).
(§4) • 1) For the prepared formulation, particle characteristics were confirmed using a particle size analyzer (Dynamic Light Scattering, DLS), and the results are shown in Table 2 below. • 2) For the prepared formulation, mRNA encapsulation efficiency was confirmed through Ribo-green assay, and the results are shown in Table 1 below.

[2] = mRNA encapsulation efficiency by Ribo-green assay; type: physicochemical; details: mRNA formulation, compound:DOPE:Cholesterol:DMG-PEG=50:10:38.5:1.5, N/P ratio 6
Protocol: as §1, §2, §3, §4

| Zeta-potential [1] | PDI (PI) [1] | Z-average [1] | Encapsulation efficiency [2] | Structure (SMILES) |
| --- | --- | --- | --- | --- |
| −2.37 ± 0.39 mV | 0.07 ± 0.04 | 154.6 ± 2.75 nm | 97.6 ± 0.2% | CCCCCCCCC(OC(=O)CCCCCCCN(C)CCCCCCCC(=O)OC(CCCCCCCC)C1CCCCC1)C1CCCCC1 (centres unmarked) [Formula D] |
| −4.69 ± 1.56 mV | 0.10 ± 0.04 | 127.4 ± 0.52 nm | 98.4 ± 0.5% | CCCCCCCCC(OC(=O)CCCCCCCN(CCO)CCCCCCCC(=O)OC(CCCCCCCC)C1CC1)C1CC1 (centres unmarked) [Formula E] |
| −6.24 ± 3.13 mV | 0.12 ± 0.02 | 131.5 ± 0.12 nm | 91.1 ± 0.2% | CCCCCCCCC(C(=O)OCCCCCCCN(C)CCCCCCCOC(=O)C(CCCCCCCC)C1CC1)C1CC1 (centres unmarked) [Formula F] |
| −6.93 ± 1.48 mV | 0.17 ± 0.02 | 194.9 ± 3.59 nm | 92.1 ± 0.1% | CCCCCCC(OC(=O)CCCCCCCN(C)CCCCCCCC(=O)OC(CCCCCC)C1CC1)C1CC1 (centres unmarked) [Formula G] |

More lines, now with the values behind:

| Structure (SMILES) | Zeta-potential [1] | PDI (PI) [1] | Z-average [1] | Encapsulation efficiency [2] |
| --- | --- | --- | --- | --- |
| CCCCCCCCC(OC(=O)CCCCCCCN(C)CCCCCCCC(=O)OC(CCCCCCCC)C1CC1)C1CC1 (centres unmarked) [Formula A] | −10.96 ± 2.69 mV | 0.09 ± 0.01 | 135.0 ± 0.46 nm | – |
| CCCCCCC(OC(=O)CCCCCN(C)CCCCCC(=O)OC(CCCCCC)C1CC1)C1CC1 (centres unmarked) [Formula B] | −4.30 ± 3.03 mV | 0.12 ± 0.03 | 183.3 ± 2.86 nm | – |
| CCCCCCCCCCC(OC(=O)CCCCCCCN(C)CCCCCCCC(=O)OC(CCCCCCCCCC)C1CC1)C1CC1 (centres unmarked) [Formula C] | −7.57 ± 4.12 mV | 0.12 ± 0.00 | 120.0 ± 2.38 nm | 95.4 ± 0.2% |
